Assay results reported in US20240261218A1, “BIODEGRADABLE MUCOADHESIVE PHARMACEUTICAL FORMULATIONS AND METHODS THEREOF” (THE TEXAS A&M UNIVERSITY SYSTEM, priority 2021, published 2024).
Several values for one entry are separate records, joined by “and”; a condition that tells them apart may be missing. Equal entries are not always repeated. Entries after “also recorded” stand apart in the source; their conditions may differ. Where two headings read alike, the source gives them in different places.

Key:
[1] = test system: Dysplastic oral keratinocyte (DOK) cells; experiment: MTT growth inhibition (IC50) in DOK cells; format: cell-based; conditions: MTT assay; for IC50: read-out: IC50 concentration
From the text: • 1. Animal care and treatment. […] Combination index (CI) and isoborogram. […] Pharmaceutical formulation. […] LC-MS/MS.

[2] = In vivo active ingredient release: tongue tissue and plasma amounts in healthy rats; design: species or system rat
Method: The instant example analyzes exemplary pharmaceutical formulations applied to the tongue of healthy rats for different time periods up to 4 hours. Concentrations of mycophenolic acid and oxaliplatin in tongue tissues were measured at the corresponding times and up to 12 hours from the beginning of the formulation application in rats. The following are groups of rats that were studied: • Group #1: Formulation applied for 0.5 hour and rat tongues were harvested for drug analysis. N=8 rats. • Group #2: Formulation applied for 1 hour and rat tongues were harvested for drug analysis. N=13 rats. • Group #3: Formulation applied for 2 hours and rat tongues were harvested for drug analysis. N=13 rats. • Group #4: Formulation applied for 3 hours and rat tongues were harvested for drug analysis. N=12 rats. • Group #5: Formulation applied for 4 hours and rat tongues were harvested for drug analysis. N=6 rats. • Group #6: Formulation applied for 4 hours and removed from the rat. At 8 hours after the start of the Formulation application, rat tongues were harvested for drug analysis. N=7 rats. • Group #7: Formulation applied for 4 hours and removed from the rat. At 12 hours after the start of the Formulation application, rat tongues were harvested for drug analysis. N=9 rats.
• 1. Animal care and treatment. […] Combination index (CI) and isoborogram. […] Pharmaceutical formulation.

[3] = Plasma concentrations before the fifth dose in 4NQO-treated rats; format: in vivo, rat
[4] = Stability of OXP in solutions; format: physicochemical
From the text: These chloride derivatives of OXP are not detectable by current available assays.

CC(=O)O[C@H]1C(=O)[C@@]2(C)[C@H]([C@H](OC(=O)c3ccccc3)[C@]3(O)C[C@H](OC(=O)[C@H](O)[C@@H](NC(=O)c4ccccc4)c4ccccc4)C(C)=C1C3(C)C)[C@]1(OC(C)=O)CO[C@@H]1C[C@@H]2O [paclitaxel]
IC50 ([1]; Keratinocyte): 0.41 nM

O=c1[nH]cc(F)c(=O)[nH]1 [5-FU]
IC50 concentration [1]: 3.33 µg/mL

COc1c(C)c2c(c(O)c1C/C=C(\C)CCC(=O)O)C(=O)OC2 [MPA]
IC50 ([1]; Keratinocyte): 13300 nM

O=C1[O][Pt]2([NH][C@@H]3CCCC[C@H]3[NH]2)[O]C1=O (relative stereo) [OXP, [SP-4-2-(1R-trans)]-(1,2-cyclohexanediamine-N,N′)[ethanedioato(2-)-O,O′]platinum]
oxaliplatin in rat tongue as % of the formulation active ingredient load ([2]; 0.5-hour formulation application group): about 21% | oxaliplatin in plasma ([2]; any groups): no detectable oxaliplatin in plasma | IC50 [1]: 1670 nM | Plasma concentration of oxaliplatin immediately before the fifth dose application ([3]; 4NQO induced rats, daily 2-hours supra-lingual formulation (9,040 ng MPS, 680 ng OXP)): not detectible | Plasma concentration of oxaliplatin immediately before the fifth dose application ([3]; 4NQO induced rats, daily 2-hours supra-lingual formulation (9,040 ng MPS, 680 ng OXP), listed as oxaliplatin): No detectable levels; also recorded: Not detectible (ND) | stability of OXP in chloride-containing solutions ([4]; NaCl (0.9%, 3%), KCl (3%)): converted by chloride in a time and concentration-dependent manner | stability of OXP in NaPi, glucose, or H2O solutions and solutions containing the bioadhesive material components ([4]; NaPi 0.2M, glucose 5%, H2O, PAA, DOPA, CMC): remains stable

COc1c(C)c2c(c(O)c1C/C=C(\C)CCC(=O)O)C(=O)OC2 [MPS, mycophenolate]
MPS detected in rat tongue as % of the formulation drug load ([2]; 0.5 hour supra-lingual application): about 55% | plasma MPS concentrations ([2]; all groups): less than 10 ng/mL | concentration at 8 h ([2]; male, Sprague-Dawley, rat, plasma, healthy rats, applied 4 hours, sampled 4 hours after removal (8 hours from beginning), mean ± SD): 6.5 ± 1.3 ng/mL | concentration at 12 h ([2]; male, Sprague-Dawley, rat, plasma, healthy rats, applied 4 hours, sampled 8 hours after removal (12 hours from beginning), mean ± SD): 4.26 ± 0.71 ng/mL | concentration at 1 h ([2]; male, Sprague-Dawley, rat, plasma, healthy rats, supra-lingual formulation, 1 hour of application, mean ± SD): 0.96 ± 0.26 ng/mL | concentration at 2 h ([2]; male, Sprague-Dawley, rat, plasma, healthy rats, supra-lingual formulation, 2 hours of application, mean ± SD): 2.09 ± 0.76 ng/mL | concentration at 3 h ([2]; male, Sprague-Dawley, rat, plasma, healthy rats, supra-lingual formulation, 3 hours of application, mean ± SD): 2.76 ± 0.68 ng/mL | concentration at 4 h ([2]; male, Sprague-Dawley, rat, plasma, healthy rats, supra-lingual formulation, 4 hours of application, mean ± SD): 1.76 ± 0.53 ng/mL | Plasma concentration of mycophenolate immediately before the fifth dose application ([3]; 4NQO induced rats, daily 2-hours supra-lingual formulation (9,040 ng MPS, 680 ng OXP), individual rats, steady-state trough): 8.24 ng/mL and 6.84 ng/mL and 3.83 ng/mL and 2.54 ng/mL and 4.82 ng/mL and 2.37 ng/mL and 5.18 ng/mL | plasma concentration of MPS right before the placement of the last (fifth) formulation, group value ([3]; group treated with OXP-MPS formulations, 2 hours × 5 days): 4.52 (+2.23) ng/ml
